Four compounds from patent publication US7745575B1 (Cellpep Pharma Inc., priority 2004, dated 2010) can be followed below.

The target in data set [1] is hIK1 (KCa3.1) (Homo sapiens, UniProt O15554). Description: patch-clamp whole-cell recording, Ca2+-activated K+ current block. It is filed as cell-based. How it is done:
(§1) Electrophysiological experiments were carried out at 22-24° C. using the patch-clamp whole-cell recording mode. Cells were bathed with mammalian Ringer's solution (in mM): 160 NaCl, 4.5 KCl, 2 CaCl2, 1 MgCl2, and 10 HEPES (pH 7.4 with NaOH), with an osmolarity of 290-320 mOsm. […] A syringe-driven perfusion device was used to exchange the external recording bath solution. Two internal pipette solutions were used, one for measuring voltage-gated K^+ currents that contained (in mM): 155 KF, 2 MgCl2, 10 HEPES, and 10 EGTA (pH 7.2 with KOH), with an osmolarity of 290-320 mOsm and another for measuring Ca^2+-activated K^+ currents that contained (in mM): 135 K-aspartate, 8.7 CaCl2, 2 MgCl2, 10 EGTA, 10 HEPES (pH 7.2 with KOH), with an osmolarity of 290-320 mOsm. A free [Ca^2+]i of 1 μM was calculated. All currents through voltage-gated K^+ channels were elicited by 200 ms depolarising voltage steps from −80 to +40 mV. Potassium currents through KCa1.1, KCa2.1 and KCa3.1 were elicited by 1 μM internal [Ca^2+]i and 400 ms voltage ramps from −120 to 0 mV (for KCa3.1 channel and KCa1.1 channel) and from −120 to +40 mV (for KCa2.1 channel). Electrodes were pulled from glass capillaries (Science Products, Germany), and fire-polished to resistances of 2.5-5 MΩ. Membrane currents were measured with an EPC-9 or EPC-10 patch-clamp amplifier (HEKA Elektronik, Lambrecht, Germany) interfaced to a Macintosh computer running acquisition and analysis software (Pulse and PulseFit). When voltage-gated K^+ currents were measured, the capacitive and leak currents were subtracted using a P/10 procedure. Series resistance compensation (>80%) was used for currents above 2 nA. The holding potential was −80 mV in all experiments.
(In general: Patch clamp records ionic current or voltage across a cell membrane.)

In data set [2] the target is mKv1.3 (Mus musculus, UniProt P16390). Description: patch-clamp whole-cell recording, K+ current block. It is filed as cell-based. How it is done:
as §1

Data set [3] addresses mKv1.1 (Mus musculus, UniProt P16388). Description: patch-clamp whole-cell recording, K+ current block. It is filed as cell-based. The method, then: as §1
The nature of data set [4]: toxicity in vivo, LD50 after intracerebroventricular injection. The note with it: mouse, icv or intrathecal, 20 g C57/BL6 mice. How it is done:
Groups of six to eight mice per dose were injected with 5 μl peptide solution containing 0.1% (w/v) bovine serum albumin and 0.9% (w/v) NaCl. The LD50 values are set out in Table 5.

For data set [5], the target named is T1, hKv3.2 (Homo sapiens, UniProt Q96PR1).
T1 sequence (Q96PR1 1-638): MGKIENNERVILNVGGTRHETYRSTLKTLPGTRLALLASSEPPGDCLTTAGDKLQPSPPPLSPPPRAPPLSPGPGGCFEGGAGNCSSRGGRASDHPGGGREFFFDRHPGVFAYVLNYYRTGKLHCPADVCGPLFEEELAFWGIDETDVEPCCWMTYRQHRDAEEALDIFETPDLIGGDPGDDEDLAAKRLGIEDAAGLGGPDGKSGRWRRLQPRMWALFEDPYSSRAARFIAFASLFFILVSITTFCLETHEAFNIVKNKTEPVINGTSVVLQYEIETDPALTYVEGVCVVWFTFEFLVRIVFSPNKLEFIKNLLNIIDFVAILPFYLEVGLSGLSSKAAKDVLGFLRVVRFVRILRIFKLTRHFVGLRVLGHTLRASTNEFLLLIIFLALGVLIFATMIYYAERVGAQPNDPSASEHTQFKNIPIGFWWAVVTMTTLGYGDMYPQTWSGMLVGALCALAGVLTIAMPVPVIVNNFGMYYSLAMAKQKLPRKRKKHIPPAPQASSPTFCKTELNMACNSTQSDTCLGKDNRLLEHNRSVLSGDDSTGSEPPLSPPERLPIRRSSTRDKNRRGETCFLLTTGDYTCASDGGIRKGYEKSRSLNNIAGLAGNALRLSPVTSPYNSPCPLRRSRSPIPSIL
Description: patch-clamp whole-cell recording, K+ current block. It is filed as cell-based. The method, then:
as §1

The target in data set [6] is hKv1.2 (Homo sapiens, UniProt P16389). As to the kind of experiment: patch-clamp whole-cell recording, K+ current block. It is filed as cell-based. The method, then:
as §1

The target of data set [7] is hKv3.2 (human (only by the printed prefix h)) (UniProt Q96PR1).
Data set [8] deals with mKv1.3 (mouse (only by the printed prefix m)) (UniProt P16390).
Data set [9] has as its target mKv1.1 (mouse (only by the printed prefix m)) (UniProt P16388).
Data set [10] has as its target hKv1.2 (human (only by the printed prefix h)) (UniProt P16389).
For data set [11], the target named is hIK1 (human (only by the printed prefix h)) (UniProt O15554).

Bridge positions count the residues as written; N and C are the ends. Peptide text beside a SMILES is read from it.

hIK1 (KCa3.1), sequence (O15554 whole entry, the tested form may be a part): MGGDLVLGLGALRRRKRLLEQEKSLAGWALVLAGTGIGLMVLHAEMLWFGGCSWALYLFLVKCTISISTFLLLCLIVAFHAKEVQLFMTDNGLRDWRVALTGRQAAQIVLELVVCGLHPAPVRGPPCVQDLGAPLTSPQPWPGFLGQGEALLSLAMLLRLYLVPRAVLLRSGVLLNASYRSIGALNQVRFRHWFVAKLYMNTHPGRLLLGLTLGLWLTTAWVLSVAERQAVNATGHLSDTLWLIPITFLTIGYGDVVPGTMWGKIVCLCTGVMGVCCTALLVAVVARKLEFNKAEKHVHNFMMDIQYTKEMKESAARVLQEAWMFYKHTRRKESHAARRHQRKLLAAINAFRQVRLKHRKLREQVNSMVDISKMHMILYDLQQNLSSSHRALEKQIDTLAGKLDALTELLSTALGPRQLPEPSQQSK
mKv1.3, sequence (P16390 whole entry): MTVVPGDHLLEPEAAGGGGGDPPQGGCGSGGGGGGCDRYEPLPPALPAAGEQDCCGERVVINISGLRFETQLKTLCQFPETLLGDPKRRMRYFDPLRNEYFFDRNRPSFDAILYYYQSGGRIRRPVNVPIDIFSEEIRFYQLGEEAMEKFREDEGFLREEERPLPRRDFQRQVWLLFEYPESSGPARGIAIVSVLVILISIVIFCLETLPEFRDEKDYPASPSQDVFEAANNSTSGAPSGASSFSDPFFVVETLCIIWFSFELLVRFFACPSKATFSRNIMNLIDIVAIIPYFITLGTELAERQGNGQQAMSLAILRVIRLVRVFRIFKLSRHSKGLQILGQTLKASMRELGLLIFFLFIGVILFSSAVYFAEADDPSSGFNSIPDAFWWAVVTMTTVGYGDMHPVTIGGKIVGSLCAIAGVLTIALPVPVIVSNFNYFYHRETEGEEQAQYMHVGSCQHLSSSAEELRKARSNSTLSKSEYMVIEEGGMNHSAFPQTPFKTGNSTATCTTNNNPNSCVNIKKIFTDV
mKv1.1, sequence (P16388 whole entry): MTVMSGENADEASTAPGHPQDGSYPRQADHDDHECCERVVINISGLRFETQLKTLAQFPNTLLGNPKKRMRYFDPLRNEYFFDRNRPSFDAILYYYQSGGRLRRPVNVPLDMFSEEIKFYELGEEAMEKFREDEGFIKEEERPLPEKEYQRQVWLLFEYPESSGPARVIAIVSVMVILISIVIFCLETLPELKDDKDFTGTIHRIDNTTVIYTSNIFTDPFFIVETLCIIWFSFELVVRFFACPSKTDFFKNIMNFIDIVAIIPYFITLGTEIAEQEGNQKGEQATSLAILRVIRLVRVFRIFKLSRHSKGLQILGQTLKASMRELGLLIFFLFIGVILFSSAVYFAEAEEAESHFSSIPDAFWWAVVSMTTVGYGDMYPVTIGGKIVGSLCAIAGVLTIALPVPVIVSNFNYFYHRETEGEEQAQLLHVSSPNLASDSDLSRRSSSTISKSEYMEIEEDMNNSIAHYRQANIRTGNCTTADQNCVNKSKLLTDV
hKv1.2, sequence (P16389 whole entry): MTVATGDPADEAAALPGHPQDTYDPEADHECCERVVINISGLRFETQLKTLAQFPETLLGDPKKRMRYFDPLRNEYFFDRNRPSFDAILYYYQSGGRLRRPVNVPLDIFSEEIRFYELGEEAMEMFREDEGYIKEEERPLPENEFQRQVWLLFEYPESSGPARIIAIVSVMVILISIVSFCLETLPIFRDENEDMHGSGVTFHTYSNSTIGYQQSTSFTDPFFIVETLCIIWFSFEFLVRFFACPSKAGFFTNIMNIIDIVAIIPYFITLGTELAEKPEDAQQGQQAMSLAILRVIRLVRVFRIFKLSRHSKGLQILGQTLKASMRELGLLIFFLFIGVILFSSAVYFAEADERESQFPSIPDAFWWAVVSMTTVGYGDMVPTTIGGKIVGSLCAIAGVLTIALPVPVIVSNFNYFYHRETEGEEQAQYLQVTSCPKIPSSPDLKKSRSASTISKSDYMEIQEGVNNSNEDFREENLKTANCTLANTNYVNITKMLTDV

The IC50 is the concentration at which inhibition is half-maximal. Lower therefore signals higher potency. Usually LD50 stands for the dose expected to kill half of the subjects tested. Low values mean a more toxic substance, high ones a less toxic substance. On to `CC[C@H](C)[C@@H]1NC(=O)[C@H](CCCCN)NC(=O)[C@@H](NC(=O)[C@H](CCCCN)NC(=O)[C@@H](NC(=O)[C@H](CC(N)=O)NC(=O)[C@@H](NC(=O)[C@@H](NC(=O)[C@@H](NC(=O)CN)C(C)C)[C@@H](C)CC)[C@@H](C)CC)C(C)C)CSSC[C@@H]2NC(=O)[C@H](CCCCN)NC(=O)CNC(=O)[C@H](Cc3ccccc3)NC(=O)[C@H](CCCNC(=N)N)NC(=O)[C@H](CCSC)NC(=O)CNC(=O)[C@H](C)NC(=O)[C@H](CC(=O)O)NC(=O)[C@H](CCCCN)NC(=O)[C@@H]3CSSC[C@@H](C(=O)N[C@H](C(=O)N4CCC[C@H]4C(=O)N[C@@H](CCCCN)C(N)=O)[C@@H](C)O)NC(=O)[C@H](Cc4c[nH]cn4)NC(=O)[C@H](CSSC[C@H](NC(=O)[C@H](CCC(N)=O)NC(=O)[C@H](CCCNC(=N)N)NC(=O)[C@H](CO)NC1=O)C(=O)N[C@@H](CC(C)C)C(=O)N[C@@H](CCCCN)C(=O)N1CCC[C@H]1C(=O)N3)NC(=O)[C@H](CCCCN)NC(=O)CNC(=O)[C@H](CC(N)=O)NC(=O)[C@H](CCSC)NC2=O` (H-GVIINVKCKISRQCLKPCKDAGMRFGKCMNGKCHCTPK-NH2; disulfide 8-28, 14-33, 18-35), for which the IC50 in data set [1] was greater than 1000 nM; in [2], 0.075 ± 0.006 nM; in data set [3], 0.36 ± 0.04 nM. This compound came in with an LD50 in [4] of 2.25 µg/kg.
On to `CC[C@H](C)[C@@H]1NC(=O)[C@H](CCCCN)NC(=O)[C@@H](NC(=O)[C@H](CCCCN)NC(=O)[C@@H](NC(=O)[C@H](CC(N)=O)NC(=O)[C@@H](NC(=O)[C@@H](NC(=O)[C@@H](NC(=O)CN)C(C)C)[C@@H](C)CC)[C@@H](C)CC)C(C)C)CSSC[C@@H]2NC(=O)[C@H](CCCCN)NC(=O)CNC(=O)[C@H](Cc3ccccc3)NC(=O)[C@H](CCCNC(=N)N)NC(=O)[C@H](CCSC)NC(=O)CNC(=O)[C@H](C)NC(=O)[C@H](CC(=O)O)NC(=O)[C@H](CCCCN)NC(=O)[C@@H]3CSSC[C@@H](C(=O)N[C@H](C(=O)N4CCC[C@H]4C(=O)N[C@@H](CCCCN)C(=O)O)[C@@H](C)O)NC(=O)[C@H](Cc4c[nH]cn4)NC(=O)[C@H](CSSC[C@H](NC(=O)[C@H](CCC(N)=O)NC(=O)[C@H](CCCNC(=N)N)NC(=O)[C@H](CO)NC1=O)C(=O)N[C@@H](CC(C)C)C(=O)N[C@@H](CCCCN)C(=O)N1CCC[C@H]1C(=O)N3)NC(=O)[C@H](CCCCN)NC(=O)CNC(=O)[C@H](CC(N)=O)NC(=O)[C@H](CCSC)NC2=O` (H-GVIINVKCKISRQCLKPCKDAGMRFGKCMNGKCHCTPK-OH; disulfide 8-28, 14-33, 18-35), for which the “activity on IK1 (in words)” value in data set [1] is on record as “shares the same activity on IK1”. The “activity on Kv1.3 channel (in words)” value in data set [2] was “the most potent Kv1.3 channel blocker characterized so far”. For the same compound, in data set [2] (compared with OsK1), the “potency on the Kv1.3 channel relative to OsK1” value was “about five times more potent”. In data set [5], this compound gave an IC50 greater than 1000 nM. In addition, the LD50 in [4] worked out at 2.5 µg/kg.
As to `CC[C@H](C)[C@@H]1NC(=O)[C@H](CCCCN)NC(=O)[C@@H](NC(=O)[C@H](CCCCN)NC(=O)[C@@H](NC(=O)[C@H](CC(N)=O)NC(=O)[C@@H](NC(=O)[C@@H](NC(=O)[C@@H](NC(=O)CN)C(C)C)[C@@H](C)CC)[C@@H](C)CC)C(C)C)CSSC[C@@H]2NC(=O)[C@H](CCCCN)NC(=O)CNC(=O)[C@H](Cc3ccccc3)NC(=O)[C@H](CCCNC(=N)N)NC(=O)[C@H](CCSC)NC(=O)CNC(=O)[C@H](C)NC(=O)[C@H](CC(=O)O)NC(=O)[C@H](CCCCN)NC(=O)[C@@H]3CSSC[C@@H](C(=O)N[C@@H](Cc4ccc(O)cc4)C(=O)N4CCC[C@H]4C(=O)N[C@@H](CCCCN)C(=O)O)NC(=O)[C@H](Cc4c[nH]cn4)NC(=O)[C@H](CSSC[C@H](NC(=O)[C@H](CCC(N)=O)NC(=O)[C@H](CCCNC(=N)N)NC(=O)[C@H](CO)NC1=O)C(=O)N[C@@H](CC(C)C)C(=O)N[C@@H](CCCCN)C(=O)N1CCC[C@H]1C(=O)N3)NC(=O)[C@H](CCCCN)NC(=O)CNC(=O)[C@H](CC(N)=O)NC(=O)[C@H](CCSC)NC2=O` (H-GVIINVKCKISRQCLKPCKDAGMRFGKCMNGKCHCYPK-OH; disulfide 8-28, 14-33, 18-35), the IC50 came to 885 ± 18 nM in [1], 0.122 ± 0.007 nM in [2], 231.8 ± 0.1 nM in data set [6] and 34.4 ± 0.3 nM in [3]. Also, the LD50 in data set [4] was 9 µg/kg.
For the compound [A^34]-OsK1 (peptide), the ID50 in data set [7] is greater than 1000 nM; in data set [8], 0.034 nM; in [9] it was 15.8 nM; in data set [10], 65 nM; in [11] it was greater than 1000 nM.
